Source: PMC9184688, “α-Glucosidase inhibitive diarylheptanoids from Ottelia acuminata var. acuminata, a traditional vegetable of Bai Nationality in Yunnan” (Natural Products and Bioprospecting, 2022)
Marks after values point to notes of the source that are not given here.

Assays:
[1] = biological target: T1, PTP1B (Homo sapiens, UniProt P18031); assay: PTP1B inhibitory assay (phosphate-based detection reagent, absorbance at 620 nm); type: biochemical; conditions: means ± SD (n = 3)
T1 construct: purchased Sigma Chemical (Merck KGaA, Darmstadt, Germany)
T1 sequence (P18031 1-322 limits assumed): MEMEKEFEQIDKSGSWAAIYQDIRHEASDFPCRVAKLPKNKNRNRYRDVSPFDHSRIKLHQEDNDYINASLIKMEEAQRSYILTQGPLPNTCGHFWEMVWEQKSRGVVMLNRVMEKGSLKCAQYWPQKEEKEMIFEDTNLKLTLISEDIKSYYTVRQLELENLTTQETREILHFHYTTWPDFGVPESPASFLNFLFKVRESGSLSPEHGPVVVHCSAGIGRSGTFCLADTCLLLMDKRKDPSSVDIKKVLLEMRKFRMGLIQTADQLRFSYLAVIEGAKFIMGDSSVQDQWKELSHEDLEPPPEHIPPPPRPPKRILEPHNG
Procedure: IR spectra were measured on a Bruker FT-IR Tensor-27 infrared spectrophotometer with KBr disks. Optical rotations were recorded on a JASCO P-1020 polarimeter. UV spectra were obtained with a Shimadzu UV-2401PC spectrometer. 1D and 2D NMR spectra were performed on a Bruker DRX-600 spectrometer using TMS as an internal standard. The chemical shifts (δ) were expressed in ppm with reference to the solvent signals. HREIMS and HRESIMS analysis were obtained from Waters Xevo TQS and Agilent G6230 TOF mass spectrometers, respectively. […] Semi-preparative HPLC was performed on a Waters 1525 HPLC with a ZORBAX SB-C18 (9.4 × 250 mm) column. Silica gel (100–200 and 200–300 mesh, Qingdao Marine Chemical Co., Ltd., People’s Republic of China), and MCI gel (75–150 μm, Mitsubishi Chemical Corporation, Tokyo, Japan) were used for column chromatography. Fractions were monitored by TLC (GF 254, Qingdao Marine Chemical Co., Ltd.), and spots were visualized by heating silica gel plates immersed in 10% H2SO4 in ethanol. Methanol (HPLC grade) and acetonitrile (HPLC grade) was purchased from CINC High Purity Solvents Co., Ltd (Shanghai, China).
The α-glucosidase and PTB1B inhibitory activity were conducted according to the previous reports with slight modifications. […] While in the PTB1B inhibitory assay, after addition of phosphate-based detection reagent then incubation at 30 °C for 20 min, and absorbance was measured at 620 nm and suramin was used as positive control. The inhibition percentage was calculated as follows: inhibition rate (%) = (E – S)/E × 100% (E is the OD of the control and S is the OD of the sample) and IC50 (50% concentration of inhibition) was calculated by Reed and Muench method.

[2] = biological target: α-glucosidase (Saccharomyces cerevisiae, UniProt P53341); assay: α-glucosidase inhibitory assay (PNPG, absorbance at 405 nm); type: biochemical; conditions: at a concentration of 50 μM; means ± SD (n = 3); read-out: α-Glucosidase Inhibition ratio (%)
Procedure: The α-glucosidase and PTB1B inhibitory activity were conducted according to the previous reports with slight modifications [49, 50]. […] The inhibition percentage was calculated as follows: inhibition rate (%) = (E – S)/E × 100% (E is the OD of the control and S is the OD of the sample) and IC50 (50% concentration of inhibition) was calculated by Reed and Muench method.

[3] = test concentration of the compounds not given

Chain of α-glucosidase (P53341 whole entry): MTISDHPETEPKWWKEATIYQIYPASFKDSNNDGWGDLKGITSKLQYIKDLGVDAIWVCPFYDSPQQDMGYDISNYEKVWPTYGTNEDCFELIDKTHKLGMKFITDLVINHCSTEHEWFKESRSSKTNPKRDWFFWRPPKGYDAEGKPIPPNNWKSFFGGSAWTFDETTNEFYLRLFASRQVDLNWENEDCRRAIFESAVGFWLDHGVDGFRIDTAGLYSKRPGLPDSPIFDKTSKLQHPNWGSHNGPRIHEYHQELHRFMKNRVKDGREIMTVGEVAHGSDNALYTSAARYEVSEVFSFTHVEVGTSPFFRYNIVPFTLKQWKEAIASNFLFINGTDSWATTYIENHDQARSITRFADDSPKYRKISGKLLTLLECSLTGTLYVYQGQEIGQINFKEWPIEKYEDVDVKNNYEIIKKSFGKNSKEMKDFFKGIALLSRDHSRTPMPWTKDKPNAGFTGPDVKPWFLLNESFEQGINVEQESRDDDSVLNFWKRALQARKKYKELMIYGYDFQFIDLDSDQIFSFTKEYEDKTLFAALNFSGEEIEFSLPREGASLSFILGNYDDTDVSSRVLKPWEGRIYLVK

Row | Structure (SMILES) | PTP1B inhibition ratio (%) [1, 3] | inhibition at 50 µM [2] | PTP1B inhibition ratio (%) ([1]; at a concentration of 20 μM, positive control)
1 | Oc1ccc2cc1Oc1ccc(cc1)CC=CC=CC(O)C2 (centres unmarked) [Compound 1, Otteacumiene A] | -9.47 ± 2.28% | 38.3 ± 1.79% | –
2 | Oc1ccc2cc1Oc1ccc(cc1)C[C@H](O)/C=C\C=C\C2 [Compound 2, Otteacumiene B] | 11.32 ± 2.03% | 43.98 ± 0.43% | –
3 | COC1c2ccc(O)c(c2)Oc2ccc(cc2)CCC=CCC1O (centres unmarked) [Compound 3, Otteacumiene C] | 19.07 ± 0.85% | – | –
4 | O=C1C/C=C/CCc2ccc(O)c(c2)-c2cc(ccc2O)C1 [Compound 4, Otteacumiene D] | 10.37 ± 2.17% | – | –
5 | Oc1ccc(C/C=C/C=C\CCc2ccc(O)cc2)cc1 [Compound 5, Otteacumiene E] | -0.28 ± 1.89% | – | –
6 | COc1ccc(CC/C=C\C=C\Cc2ccc(O)cc2)cc1 [Compound 6, Otteacumiene F] | -12.94 ± 2.98% | – | –
7 | COc1ccc(/C=C/C/C=C/CCc2ccc(OC)cc2)cc1 [Compound 7, (1E,4E)-1,7-di(4-methoxyphenyl)-1,4-heptadiene] | -26.62 ± 2.28% | – | –
8 | Oc1ccc2cc1Oc1ccc(cc1)CC/C=C\C=C\C2 [Compound 8, tedarenes A] | -3.47 ± 1.21% | – | –
9 | Cc1ccc(C(=O)Nc2ccc(S(=O)(=O)O)c3cc(S(=O)(=O)O)cc(S(=O)(=O)O)c23)cc1NC(=O)c1cccc(NC(=O)Nc2cccc(C(=O)Nc3cc(C(=O)Nc4ccc(S(=O)(=O)O)c5cc(S(=O)(=O)O)cc(S(=O)(=O)O)c45)ccc3C)c2)c1 [Suramin, suramin, reference compound] | – | – | 84.11 ± 0.42^d %
